What was measured:
[1] = tested on: Srebp-1c; experiment: Western blot of Srebp-1c protein in Caco-2/HepG2 co-culture; assay type: cell-based, human; settings: OA-induced co-culture, 50 μM, 24 h; compared vs. OA
Procedure: (§1) Cells from the co-culture model were lysed and supernatants were collected. The protein concentrations were determined using the BCA Protein Quantitation Kit. Then electrophoresis of samples was conducted using a SDS-PAGE kit (Beyotime Biotechnology) following the manufacturer’s instructions and transferred to poly-vinylidene difluoride (PVDF) membrane. Next, membranes were incubated in 5% nonfat milk to block non-specific antibody binding for 30 min at room temperature and followed by incubating with primary antibodies and secondary antibodies. Chemiluminescence based-images of the blots were acquired using ImageQuant LAS 500 system (GE, United States). Protein bands were quantified using ImageJ (version 1.53a) software. The changes in expression levels of these proteins detected finally are used to evaluate the sample’s effect on lipid metabolism.

[2] = tested on: HepG2 cells; experiment: TG and TC content in OA-induced high-fat HepG2 cells; assay type: cell-based, human; settings: OA-induced high-fat HepG2 cells, 50 μM, 24 h
Procedure: For high fat HepG2 model: […] Afterwards, cells were harvested and lysed. […] For TG and TC assay: […] The medium was removed and the cells were washed twice with PBS. The levels of triglycerides (TG) and total cholesterol (TC) in the cells were determined according to the instructions of test kits.

[3] = biological target: MRP2 (Homo sapiens, UniProt Q92887); experiment: Bidirectional Caco-2 transport with probenecid (MRP inhibitor); settings: for ER (efflux rate) / Papp (AP → BL) / Papp (BL → AP): 50 μmol/L, + Prob (probenecid 1 mM); for substrate of MRP2: bidirectional assay with probenecid 1 mM
MRP2, sequence (Q92887 whole entry): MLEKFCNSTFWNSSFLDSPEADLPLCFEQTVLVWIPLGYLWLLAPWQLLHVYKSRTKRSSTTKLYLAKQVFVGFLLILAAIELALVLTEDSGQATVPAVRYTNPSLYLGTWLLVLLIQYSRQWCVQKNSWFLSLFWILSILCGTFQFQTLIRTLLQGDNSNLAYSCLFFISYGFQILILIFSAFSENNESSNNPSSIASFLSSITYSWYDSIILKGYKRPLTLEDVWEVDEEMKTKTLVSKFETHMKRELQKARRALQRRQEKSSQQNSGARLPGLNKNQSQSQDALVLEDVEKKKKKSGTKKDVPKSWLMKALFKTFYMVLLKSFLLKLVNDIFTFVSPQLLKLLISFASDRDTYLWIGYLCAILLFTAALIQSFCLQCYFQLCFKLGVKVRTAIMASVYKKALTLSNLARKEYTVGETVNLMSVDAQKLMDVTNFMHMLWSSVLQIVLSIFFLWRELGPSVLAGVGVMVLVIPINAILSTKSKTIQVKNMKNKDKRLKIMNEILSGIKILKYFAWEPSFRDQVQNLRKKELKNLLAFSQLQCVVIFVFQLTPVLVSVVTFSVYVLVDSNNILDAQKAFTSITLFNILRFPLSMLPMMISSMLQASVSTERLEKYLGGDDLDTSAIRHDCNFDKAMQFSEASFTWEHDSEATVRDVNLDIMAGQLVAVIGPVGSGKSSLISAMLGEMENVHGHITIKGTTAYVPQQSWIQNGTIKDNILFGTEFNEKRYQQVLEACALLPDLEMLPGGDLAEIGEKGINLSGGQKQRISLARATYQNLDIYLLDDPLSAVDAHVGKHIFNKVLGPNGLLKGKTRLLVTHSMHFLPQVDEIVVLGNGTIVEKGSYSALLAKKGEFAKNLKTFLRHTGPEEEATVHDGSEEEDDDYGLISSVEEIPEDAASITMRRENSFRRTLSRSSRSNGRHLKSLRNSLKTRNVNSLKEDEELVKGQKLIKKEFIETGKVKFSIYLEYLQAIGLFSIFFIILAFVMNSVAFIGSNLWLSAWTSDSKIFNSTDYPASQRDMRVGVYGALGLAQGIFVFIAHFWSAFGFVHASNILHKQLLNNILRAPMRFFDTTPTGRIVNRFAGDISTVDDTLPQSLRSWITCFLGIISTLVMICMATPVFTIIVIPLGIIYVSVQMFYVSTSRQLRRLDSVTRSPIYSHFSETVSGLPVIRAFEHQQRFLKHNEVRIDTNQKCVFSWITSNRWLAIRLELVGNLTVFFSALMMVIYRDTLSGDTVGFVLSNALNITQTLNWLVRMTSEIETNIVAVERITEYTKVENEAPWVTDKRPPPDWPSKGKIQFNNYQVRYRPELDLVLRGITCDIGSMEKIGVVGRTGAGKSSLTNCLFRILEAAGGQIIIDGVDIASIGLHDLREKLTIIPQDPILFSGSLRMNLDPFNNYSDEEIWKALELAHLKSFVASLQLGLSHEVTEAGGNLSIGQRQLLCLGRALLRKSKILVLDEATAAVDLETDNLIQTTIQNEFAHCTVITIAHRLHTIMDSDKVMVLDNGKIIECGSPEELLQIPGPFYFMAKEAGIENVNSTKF
Procedure: (§2) Transport assay: The monolayers were pre-incubated at 37°C for 30–40 min with 5% CO2 in a pre-warmed media, which contained Hanks Balanced Salt solution (HBSS, BioWhittaker), HEPES buffer and D-glucose. For the transport of apical (AP) side to basolateral (BL) side, the media was removed after pre-incubation and 0.5 mL of polyphenols was added to the AP side. 1.5 mL of HBSS were added to the BL side. Then 200 μL of samples were taken from the BL side at 30, 60, 90, 120 and 150 min, respectively. The BA sample volumes removed were therewith replenished with same volumes of the HBSS solution. For the transport of BL to AP, polyphenols were added to BL and samples were taken from AP at a series of time points as above mentioned. The TEER was measured from the beginning to the end of the assay.
(§3) Caco-2 cells (1×10^5 cells/well) were cultured in 96-well plates for 24 h until differentiation, with a TEER value exceeding 400 Ω·cm^2. Bidirectional transport experiments from AP to BL or from BL to AP were performed as mentioned in the transport assay. The apparent permeability coefficients, cumulative release and initial concentrations and efflux rates were determined. In brief, the total transport time was set to 150 min. For AP to BL transport, 0.5 mL of polyphenols were added to AP with 1.5 mL of HBSS to the BL side. 200 μL of samples were collected from BL at different time points (30, 60, 90, 120, and 150 min). For BL to AP transport, polyphenols were added to BL and samples were collected from AP as the mentioned above.

[4] = biological target: P-gp (Homo sapiens, UniProt P08183); experiment: Bidirectional Caco-2 transport with verapamil (P-gp inhibitor); settings: for ER (efflux rate) / Papp (AP → BL) / Papp (BL → AP): 50 μmol/L, + Ver (verapamil 100 μM); for substrate of P-gp: bidirectional assay with verapamil 100 μM
P-gp, sequence (P08183 whole entry): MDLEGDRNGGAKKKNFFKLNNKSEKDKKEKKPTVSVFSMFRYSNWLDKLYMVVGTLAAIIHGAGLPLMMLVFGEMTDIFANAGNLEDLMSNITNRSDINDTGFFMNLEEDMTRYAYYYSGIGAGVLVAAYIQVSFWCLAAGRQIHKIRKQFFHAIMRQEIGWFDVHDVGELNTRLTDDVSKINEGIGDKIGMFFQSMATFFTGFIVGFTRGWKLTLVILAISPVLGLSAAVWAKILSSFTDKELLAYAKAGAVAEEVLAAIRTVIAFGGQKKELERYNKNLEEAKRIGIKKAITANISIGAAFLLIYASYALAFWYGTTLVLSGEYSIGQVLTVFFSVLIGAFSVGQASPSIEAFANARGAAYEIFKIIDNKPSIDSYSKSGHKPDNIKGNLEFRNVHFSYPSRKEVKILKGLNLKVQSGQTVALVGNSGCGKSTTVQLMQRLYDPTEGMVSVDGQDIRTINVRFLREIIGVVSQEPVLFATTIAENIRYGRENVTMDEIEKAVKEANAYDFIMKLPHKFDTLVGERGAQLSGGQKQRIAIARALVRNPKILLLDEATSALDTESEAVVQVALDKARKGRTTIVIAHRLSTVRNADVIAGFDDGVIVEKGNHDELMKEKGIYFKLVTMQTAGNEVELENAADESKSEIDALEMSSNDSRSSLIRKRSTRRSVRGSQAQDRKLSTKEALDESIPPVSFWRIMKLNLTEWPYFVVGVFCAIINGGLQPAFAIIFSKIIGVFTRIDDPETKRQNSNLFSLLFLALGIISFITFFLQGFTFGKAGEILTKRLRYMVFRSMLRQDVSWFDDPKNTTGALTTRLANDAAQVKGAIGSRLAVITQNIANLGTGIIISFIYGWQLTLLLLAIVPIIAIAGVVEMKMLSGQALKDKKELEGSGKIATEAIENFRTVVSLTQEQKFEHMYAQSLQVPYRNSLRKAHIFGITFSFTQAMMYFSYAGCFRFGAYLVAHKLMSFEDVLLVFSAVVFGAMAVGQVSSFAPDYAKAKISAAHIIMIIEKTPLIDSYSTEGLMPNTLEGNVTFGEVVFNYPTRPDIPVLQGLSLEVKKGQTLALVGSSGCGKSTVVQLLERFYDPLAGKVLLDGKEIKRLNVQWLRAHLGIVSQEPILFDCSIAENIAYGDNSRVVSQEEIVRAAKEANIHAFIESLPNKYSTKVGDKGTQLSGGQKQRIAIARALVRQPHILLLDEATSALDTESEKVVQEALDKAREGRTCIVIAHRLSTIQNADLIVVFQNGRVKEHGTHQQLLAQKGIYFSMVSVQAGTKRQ
Procedure: as §2, §3

[5] = tested on: HepG2 cells; experiment: Oil Red O lipid content in OA-induced high-fat HepG2 cells; settings: 1 mM OA-induced HepG2 cells, 50 μM, 24 h
Procedure: For the lipid content assay: The cells were treated with 1 mM oleic acid (OA). […] The absorbance value was recorded at 530 nm using a microplate absorbance reader. Isopropanol solvent was used as a control ([14]).

[6] = tested on: Fasn; experiment: Western blot of Fasn protein in Caco-2/HepG2 co-culture; assay type: cell-based, human; settings: OA-induced co-culture, 50 μM, 24 h; compared vs. OA
Procedure: as §1

| SMILES | ER (efflux rate) ([3]; 30 min) | Papp (AP → BL) ([3]; 30 min) | Papp (BL → AP) ([3]; 30 min) | ER (efflux rate) ([3]; 60 min) | Papp (AP → BL) ([3]; 60 min) | Papp (BL → AP) ([3]; 60 min) | ER (efflux rate) ([3]; 90 min) | Papp (BL → AP) ([3]; 90 min) | ER (efflux rate) ([3]; 120 min) | Papp (AP → BL) ([3]; 120 min) | Papp (BL → AP) ([3]; 120 min) | ER (efflux rate) ([3]; 150 min) | Papp (AP → BL) ([3]; 150 min) | Papp (BL → AP) ([3]; 150 min) | substrate of MRP2 [3] | ER (efflux rate) ([4]; 30 min) | Papp (AP → BL) ([4]; 30 min) | Papp (BL → AP) ([4]; 30 min) | ER (efflux rate) ([4]; 60 min) | Papp (AP → BL) ([4]; 60 min) | further results |
| --- | --- | --- | --- | --- | --- | --- | --- | --- | --- | --- | --- | --- | --- | --- | --- | --- | --- | --- | --- | --- | --- |
| OC[C@H]1O[C@@H](Oc2cc3c(O)cc(O)cc3[o+]c2-c2ccc(O)c(O)c2)[C@H](O)[C@@H](O)[C@@H]1O [C3G, Cyanidin-3-O-glucoside] | 0.63 | 8.47 ± 0.39 ×10^−5 cm /s | 5.31 ± 0.72 ×10^−5 cm /s | 0.61 | 4.55 ± 0.09 ×10^−5 cm /s | 2.79 ± 0.37 ×10^−5 cm /s | 0.52 | 1.62 ± 0.08 ×10^−5 cm /s | 0.53 | 2.45 ± 0.03 ×10^−5 cm /s | 1.29 ± 0.09 ×10^−5 cm /s | 0.56 | 1.83 ± 0.09 ×10^−5 cm /s | 1.06 ± 0.04 ×10^−5 cm /s | not substrates | 0.48 | 11.4 ± 0.49 ×10^−5 cm /s | 5.49 ± 0.66 ×10^−5 cm /s | 0.54 | 5.73 ± 0.21 ×10^−5 cm /s | Srebp-1c protein expression level (densitometry) [1]: 1.32; reduction of TG content [2]: 21%; Papp (AP → BL) ([3]; 90 min): 3.12 ± 0.02 ×10^−5 cm /s; Papp (BL → AP) ([4]; 60 min): 3.07 ± 0.2 ×10^−5 cm /s; ER (efflux rate) ([4]; 90 min): 0.51; Papp (AP → BL) ([4]; 90 min): 4.05 ± 0.12 ×10^−5 cm /s; Papp (BL → AP) ([4]; 90 min): 2.09 ± 0.03 ×10^−5 cm /s; ER (efflux rate) ([4]; 120 min): 0.54; Papp (AP → BL) ([4]; 120 min): 3.16 ± 0.17 ×10^−5 cm /s; Papp (BL → AP) ([4]; 120 min): 1.71 ± 0.15 ×10^−5 cm /s; ER (efflux rate) ([4]; 150 min): 0.51; Papp (AP → BL) ([4]; 150 min): 2.47 ± 0.14 ×10^−5 cm /s; Papp (BL → AP) ([4]; 150 min): 1.21 ± 0.28 ×10^−5 cm /s; substrate of P-gp [4]: not substrates; decrease of lipid absorption rate (Oil Red O lipid droplets) [5]: 22.35% |
| O.Oc1cc(O)c2c(c1)O[C@H](c1ccc(O)c(O)c1)[C@@H](O)C2 [catechin] | 0.58 | 9.19 ± 0.53 ×10^−5 cm /s | 5.36 ± 0.52 ×10^−5 cm /s | 0.56 | 4.46 ± 0.36 ×10^−5 cm /s | 2.50 ± 0.27 ×10^−5 cm /s | 0.52 | 1.64 ± 0.37 ×10^−5 cm /s | 0.51 | 2.48 ± 0.19 ×10^−5 cm /s | 1.27 ± 0.27 ×10^−5 cm /s | 0.48 | 1.93 ± 0.49 ×10^−5 cm /s | 0.98 ± 0.34 ×10^−5 cm /s | not substrates | 0.57 | 11.2 ± 0.23 ×10^−5 cm /s | 6.38 ± 0.37 ×10^−5 cm /s | 0.57 | 6.02 ± 0.37 ×10^−5 cm /s | Fasn protein expression level (densitometry) [6]: 1.11; Papp (BL → AP) ([4]; 60 min): 3.45 ± 0.29 ×10^−5 cm /s; ER (efflux rate) ([4]; 90 min): 0.51; Papp (AP → BL) ([4]; 90 min): 3.98 ± 0.31 ×10^−5 cm /s; Papp (BL → AP) ([4]; 90 min): 2.05 ± 0.56 ×10^−5 cm /s; ER (efflux rate) ([4]; 120 min): 0.52; Papp (AP → BL) ([4]; 120 min): 3.25 ± 0.52 ×10^−5 cm /s; Papp (BL → AP) ([4]; 120 min): 1.68 ± 0.29 ×10^−5 cm /s; ER (efflux rate) ([4]; 150 min): 0.52; Papp (AP → BL) ([4]; 150 min): 2.54 ± 0.17 ×10^−5 cm /s; Papp (BL → AP) ([4]; 150 min): 1.32 ± 0.34 ×10^−5 cm /s; substrate of P-gp [4]: not substrates; decrease of lipid absorption rate (Oil Red O lipid droplets) [5]: 31.24% |
